Series [1] deals with P-glycoprotein drug pumps. Also on record: method as in PMID 23688047. The following applies: cited from earlier work.
For series [2], the system named is U87MG, U251, and T98G cells. The experiment in a line: Autophagy: acidic vesicular organelle (AVO) staining. To be noted: vosaroxin at IC20 for each cell line added to RT 4 Gy; 24 hours. Type of series: cell-based, human. An excerpt: As a marker of autophagy we evaluated the presence of AVOs after staining of cell cultures with LysoTracker® Red DND-99 kit (Life Technologies Italia, Monza, Italy) according to the manufacturer’s instructions. The intensity of the red fluorescence is proportional to the degree of acidity. The percentage of autophagic cells was quantified with the Tali® Image-Based Cytometer (Life Technologies) measuring fluorescence emission at 590 nm with fluorescence excitation at 577 nm. The results were expressed as the percentage of cell AVOs stained in controls and in treated cultures.

Series [3] deals with BT12M patient-derived glioblastoma stem cell line. The series can be described thus: Inhibition of proliferation (cell viability). Type of series: cell-based. To be noted: Homo sapiens. On the procedure: (§1) Thirteen human glioma cell lines (U251, U373, SNB19, U118, U138, U87MG, A172, LN229, LN19, SW1783, T98G, SF-268, and D54) were cultured at 37°C in 5% CO2 and were maintained in Dulbecco’s modified Eagle medium (DMEM) containing 10% (v/v) fetal bovine serum, 4 mM glutamine, 100 IU/mL penicillin, 100 μg/mL streptomycin, and 1% nonessential amino acid (Invitrogen Life Technologies, Inc., Rockville, MD, USA). To minimize the risk of working with misidentified and/or contaminated cell lines, the cells used in studies reported here were stocked at very low passages after initial receipt from the vendor to reduce the possibility of contaminated cell line stocks and used at < 20 subcultures. Periodically, DNA profiling by GenePrint® 10 System (Promega Corporation, Madison, WI, USA) was carried out to authenticate cell cultures. Luciferase-transfected U251 cells were kindly provided by Jari E. Heikkila, department of Biochemistry and Pharmacy, Abo Akademi University, Turku, Finland. […] These non-commercially available, patient-derived cells were analyzed using short tandem repeat profiles. The expression of MGMT, p53, and PTEN was detected in western blots with antibodies from Santa Cruz against MGMT (sc166528), wt p53 (sc-100), total p53 (sc-126), and PTEN (sc-7974).
(§2) Cells were seeded at a density of 2 × 10^4 cells/mL in 24-well plates. […] At the conclusion of the treatment period, cells were trypsinized and resuspended in 1.0 mL of saline; viable cells were counted using the NucleoCounter™ NC-100 (Chemotec, Cydevang, Denmark). […] IC50 values were calculated using GraFit (Erithacus Software Limited, Staines, UK).

The subject of series [4] is CSCs-7 patient-derived glioblastoma stem cell line. The experiment in a line: Inhibition of proliferation (cell viability). Type of series: cell-based. To be noted: Homo sapiens. On the procedure: as §1, §2
The subject of series [5] is CSCs-5 patient-derived glioblastoma stem cell line. The series can be described thus: Inhibition of proliferation (cell viability). To be noted: Homo sapiens. It is filed as cell-based. On the procedure:
as §1, §2

The test system of another series is T98G xenografts. The experiment in a line: Cytokine expression in xenograft tissue extracts (ELISA). It is filed as in vivo, female CD1-nu/nu mice. The following applies: T98G xenograft tissue extract. On the procedure:
(§3) After appropriate treatments, tumor cell cultures and tissues were harvested for analysis of cytokine expression. Cell pellets were washed with PBS and lysed with RIPA buffer. Cell lysates and conditioned media were assayed by ELISA to measure (i) active human caspase-3 (CBA045, Merck Chemicals Ltd., Nottingham, UK), (ii) beclin-1 (E98557Hu, USCN Life Sciences, Houston, TX, USA), and (iii) DNA damage (EpiQuik in situ DNA Damage Assay Kit, Epigentek, Farmingdale, NY, USA). Tumor extracts were analyzed for the presence of:
(§4) • MMP-2 (KHC3081) • TNF-α (KHC3011, Life Technologies Italia, Monza, Italy) • CXCR4 (Cyto Glow CXCR4 [pSer339], cell-based ELISA, Assay Biotech, Sunnyvale, CA, USA) • Human Fas ligand (ELH-FASL, RayBiotech, Norcross, GA, USA) • IL-6 (orb50052) and survivin (orb50135) (Biorbyt) • TGF-β1 (Quantikine ELISA Kit, DB100B, R&D Systems, Minneapolis, MN, USA) • SDF-1α (Human CXCL12/SDF-1α Quantikine ELISA Kit, DSA00, R&D Systems) • Mouse IL-10 DuoSet ELISA DY417 (R&D Systems Minneapolis, MN, USA) • Mouse NOS2 / iNOS ELISA Kit (Sandwich ELISA) - LS-F12166 (LifeSpan Biosciences, Inc, Seattle, WA, USA) • Mouse ARG1 / Arginase-1 ELISA Kit (Sandwich ELISA) - LS-F10883 (LifeSpan Biosciences, Inc, Seattle, WA, USA)
(§5) All determinations were performed in triplicate, according to manufacturers’ instructions. Data are presented as mean ± SE. Cytokine secretion determined by ELISA was normalized to total protein concentration in tissue lysates.
On the technique in general: In an ELISA, binding on a coated surface is turned into a signal by an enzyme label.

The next series deals with U87MG xenografts. The series is described as above. It is filed as in vivo, female CD1-nu/nu mice. To be noted: U87MG xenograft tissue extract. As for the experimental part: as §3, §4, §5
For series [6], the system named is 13 human glioma cell lines and three patient-derived glioblastoma stem cell lines. The experiment in a line: Cell viability / growth inhibition, whole panel. Type of series: cell-based. As for the experimental part:
Cells were seeded at a density of 2 × 10^4 cells/mL in 24-well plates. Cells were […] to attach and grow in 5% fetal bovine serum in DMEM for 24 hours. Cells were treated with different doses of radiation or temozolomide and then maintained in the appropriate culture conditions. At the conclusion of the treatment period, cells were trypsinized and resuspended in 1.0 mL of saline; viable cells were counted using the NucleoCounter^TM NC-100 (Chemotec, […], Denmark). All experiments were conducted in triplicate. IC50 values were calculated using GraFit (Erithacus Software Limited, Staines, UK).

The values below come from publication PMC5444710, “Enhancement of radiosensitivity by the novel anticancer quinolone derivative vosaroxin in preclinical glioblastoma models” (Oncotarget, 2017).

Some results are limits rather than exact numbers.

By IC50 is commonly meant the concentration that inhibits the measured activity by half. Usually IC20 stands for the concentration at which the effect reaches the 20% level.

For the compound `CN[C@H]1CN(c2ccc3c(=O)c(C(=O)O)cn(-c4nccs4)c3n2)C[C@@H]1OC` [vosaroxin], in series [1], the “substrate for P-glycoprotein drug pumps” value was “not a substrate”. The “RT-induced AVO staining” value in series [2] is listed as “reduced”. The IC50 in series [3] is 44.3 ± 5.5 nM. Also, the half-inhibitory concentration (IC50) in series [4] stood at 125 ± 15.4 nM. In addition, inhibition in series [5] was half-maximal at 85.4 ± 7.8 nM (IC50). In the series with T98G xenografts, the “Human IL-6” value is given as 30 ± 3 pg/mg tissue; the “Human TGF-β1” value was 27 ± 3; the “Human TNF-α” value came out at 3 ± 1 pg/mg tissue; the “Human and mouse IL-8” value is recorded as 440 ± 30 pg/mg tissue. Also, in the series on T98G xenografts, the “Mouse IL-1β” value is reported as 27 ± 4 pg/mg tissue, the “Mouse IL-10” value was under 1.0 and the “Mouse SDF-1α” value amounted to 12 ± 4. For the same compound, in the series on U87MG xenografts, the “Human IL-6” value was 78 ± 13 pg/mg tissue; the “Human TGF-β1” value was 47 ± 8; the “Human TNF-α” value worked out at 17 ± 3 pg/mg tissue; the “Human and mouse IL-8” value came out at 715 ± 37 pg/mg tissue. For the same compound, in the series with U87MG xenografts, the “Mouse IL-1β” value was 85 ± 10 pg/mg tissue, the “Mouse IL-10” value worked out at 6.2 ± 0.5 and the “Mouse SDF-1α” value is 18 ± 3. Besides, the IC20 in series [6] (Glioma cell, glioma cells used in clonogenic studies, read-out: IC20 values in growth inhibition assays, range) fell in the range of 10 to 100 nM. The concentration for half-maximal inhibition (IC50) in series [6] (read-out: IC50 values, range over all cell lines tested) fell in the range of 12.8 to 260 nM.
